From patent EP4810052A2, “HCRHR2 SELECTIVE POLYPEPTIDES” (Gubra A/S, priority 2023, dated 2026)
Read-outs that look alike come from different tables or passages of the source. Starred links: 1 amine or outer side, 2 acyl side, 3 side chain; linkers in the order of their positions; H or OH if unused. Non-standard residues stand in square brackets, D forms with d. Residues, ends and D or L forms follow the SMILES beside them. Groups on a side chain read outwards from the residue. *: point of attachment. C20 diacid = O=C(O)CCCCCCCCCCCCCCCCCCC(=O)*; γGlu = O=C(O)[C@H](CCC(=O)[*:2])N[*:1]; NMeI = CC[C@H](C)[C@H](NC)C(=O)O; Nle = CCCC[C@H](N)C(=O)O; AEEA = NCCOCCOCC(=O)O; Aib = CC(C)(N)C(=O)O

How the values were obtained:
[1] = target: T1, hCRHR2 (Homo sapiens, UniProt Q13324); experiment: HTRF cAMP assay, determination of hCRHR2 potency (peptide libraries 5 conc., purified peptides 11 conc.); type: cell-based
T1 sequence (Q13324 1-411): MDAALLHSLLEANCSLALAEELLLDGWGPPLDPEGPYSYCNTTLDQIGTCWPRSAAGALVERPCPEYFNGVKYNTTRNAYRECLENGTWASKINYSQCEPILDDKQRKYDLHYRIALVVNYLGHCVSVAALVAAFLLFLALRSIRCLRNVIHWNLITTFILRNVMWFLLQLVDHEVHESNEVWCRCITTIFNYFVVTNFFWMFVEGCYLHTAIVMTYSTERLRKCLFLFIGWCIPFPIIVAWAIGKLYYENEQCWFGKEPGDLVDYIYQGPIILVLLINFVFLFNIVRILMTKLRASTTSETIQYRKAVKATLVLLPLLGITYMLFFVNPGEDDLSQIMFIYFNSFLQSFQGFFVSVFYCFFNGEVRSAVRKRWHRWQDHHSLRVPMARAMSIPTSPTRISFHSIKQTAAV
In short: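 CHO-K1 cells stably expressing human CRHR2 were thawed from frozen stocks immediately before use and assayed in suspension with agonist peptides. cAMP was measured by time-resolved FRET in a competitive immunoassay between cryptate-labelled anti-cAMP antibody and d2-labelled cAMP. EC50 values came from nonlinear regression, sigmoid variable-slope fit.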

[2] = target: T2, hCRHR1 (Homo sapiens, UniProt P34998); experiment: HTRF cAMP assay, determination of hCRHR1 potency (peptide libraries 5 conc., purified peptides 11 conc.); type: cell-based
T2 sequence (P34998 24-415): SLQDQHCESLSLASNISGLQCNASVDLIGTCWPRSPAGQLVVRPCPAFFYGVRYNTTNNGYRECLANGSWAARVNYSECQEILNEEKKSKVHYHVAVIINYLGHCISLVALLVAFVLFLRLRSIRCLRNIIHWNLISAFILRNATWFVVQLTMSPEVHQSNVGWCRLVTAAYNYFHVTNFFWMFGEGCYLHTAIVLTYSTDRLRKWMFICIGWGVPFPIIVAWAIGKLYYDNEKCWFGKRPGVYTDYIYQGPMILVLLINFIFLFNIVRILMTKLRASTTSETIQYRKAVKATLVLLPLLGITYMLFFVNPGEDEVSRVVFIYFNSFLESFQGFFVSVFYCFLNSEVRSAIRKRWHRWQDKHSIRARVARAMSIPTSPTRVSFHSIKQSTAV
In short: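 CHO-K1 cells stably expressing human CRHR1, thawed from frozen stocks just before use, were stimulated in suspension with agonist peptides. cAMP was measured by HTRF competitive immunoassay (cryptate anti-cAMP antibody vs d2-cAMP).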

[3] = Table 4, library peptides having X^38 = Nle, read-out: hCRHR2 pEC50 (converted)
[4] = Table 4, library peptides having X^38 = Nle, read-out: hCRHR1 pEC50 (converted)

Row | SMILES | EC50 ([1]; library peptides, matched molecular pairs L vs Nle in position X^38, read-out: Potency hCRHR2 pEC50 (converted)) [nM] | EC50 ([2]; library peptides, matched molecular pairs L vs Nle in position X^38, read-out: Potency hCRHR1 pEC50 (converted)) [nM] | EC50 [1, 3] [nM] | EC50 [2, 4] [nM] | Selectivity hCRHR1 EC50/hCRHR2 EC50 ([1]; Table 4, ratio, or comparison with Ref. 1 (SEQ ID NO: 205) / Ref. 2 (SEQ ID NO: 124))
1 | CCCC[C@H](NC(=O)[C@@H](NC(=O)[C@H](CCC(=O)O)NC(=O)[C@H](C)NC(=O)[C@H](CC(N)=O)NC(=O)[C@@H](NC(=O)[C@H](CCCCNC(=O)COCCOCCNC(=O)COCCOCCNC(=O)CC[C@H](NC(=O)CC[C@H](NC(=O)CCCCCCCCCCCCCCCCCCC(=O)O)C(=O)O)C(=O)O)NC(=O)[C@H](C)NC(=O)[C@H](CCC(N)=O)NC(=O)[C@H](CCC(=O)O)NC(=O)[C@H](CCCNC(=N)N)NC(=O)[C@H](C)NC(=O)[C@@H](NC(=O)[C@H](CCCNC(=N)N)NC(=O)[C@H](C)NC(=O)[C@H](CCCNC(=N)N)NC(=O)[C@H](C)NC(=O)[C@H](CCC(N)=O)NC(=O)[C@H](CCC(=O)O)NC(=O)[C@H](CC(C)C)NC(=O)[C@H](CC(C)C)NC(=O)[C@@H](NC(=O)[C@H](CCC(N)=O)NC(=O)[C@H](CC(C)C)NC(=O)[C@H](CC(C)C)NC(=O)CNC(=O)[C@@H](NC(=O)[C@@H]1CCCN1C(=O)[C@@H](NC(=O)[C@H](CC(=O)O)NC(=O)[C@H](CC(C)C)NC(=O)[C@H](CO)NC(=O)[C@H](CC(C)C)NC(=O)[C@@H](NC(=O)[C@@H](N)[C@@H](C)CC)C(C)C)C(C)C)[C@@H](C)CC)[C@@H](C)CC)C(C)C)[C@@H](C)O)[C@@H](C)CC)C(=O)N[C@@H](C)C(=O)N[C@@H](CCC(=O)O)C(=O)N[C@H](C(N)=O)C(C)C [compound 91] (H-IVLSLDVPIGLLQILLEQARARVAREQAK([AEEA-AEEA-γGlu-γGlu-C20 diacid])TNAEI[Nle]AEV-NH2) | 0.398 | 1.58 | – | – | –
2 | CCCC[C@H](NC(=O)[C@@H](NC(=O)[C@H](CCC(=O)O)NC(=O)[C@H](C)NC(=O)[C@H](CC(N)=O)NC(=O)C(C)(C)NC(=O)[C@H](CCCCNC(=O)COCCOCCNC(=O)COCCOCCNC(=O)CC[C@H](NC(=O)CC[C@H](NC(=O)CCCCCCCCCCCCCCCCCCC(=O)O)C(=O)O)C(=O)O)NC(=O)[C@H](C)NC(=O)[C@H](CCC(N)=O)NC(=O)[C@H](CCC(=O)O)NC(=O)[C@H](CCCNC(=N)N)NC(=O)[C@H](C)NC(=O)[C@H](C)NC(=O)[C@H](CCCNC(=N)N)NC(=O)[C@H](C)NC(=O)[C@H](CCCNC(=N)N)NC(=O)[C@H](C)NC(=O)[C@H](CCC(N)=O)NC(=O)[C@H](C)NC(=O)[C@H](CC(C)C)NC(=O)[C@H](CC(C)C)NC(=O)[C@@H](NC(=O)[C@H](CCC(N)=O)NC(=O)[C@H](CC(C)C)NC(=O)[C@H](CC(C)C)NC(=O)CNC(=O)[C@@H](NC(=O)[C@@H]1CCCN1C(=O)[C@@H](NC(=O)[C@H](CC(=O)O)NC(=O)[C@H](CC(C)C)NC(=O)[C@H](CO)NC(=O)[C@H](CC(C)C)NC(=O)[C@@H](NC(=O)[C@@H](NC)[C@@H](C)CC)C(C)C)C(C)C)[C@@H](C)CC)[C@@H](C)CC)[C@@H](C)CC)C(=O)N[C@@H](C)C(=O)N[C@@H](CCC(=O)O)C(=O)N[C@H](C(N)=O)C(C)C [compound 119] (H-[NMeI]VLSLDVPIGLLQILLAQARARAAREQAK([AEEA-AEEA-γGlu-γGlu-C20 diacid])[Aib]NAEI[Nle]AEV-NH2) | – | – | 0.02 | 1000 | –
3 | CCCC[C@H](NC(=O)[C@@H](NC(=O)[C@H](CCC(=O)O)NC(=O)[C@H](C)NC(=O)[C@H](CC(N)=O)NC(=O)C(C)(C)NC(=O)[C@H](CCCCNC(=O)COCCOCCNC(=O)COCCOCCNC(=O)CC[C@H](NC(=O)CC[C@H](NC(=O)CCCCCCCCCCCCCCCCCCC(=O)O)C(=O)O)C(=O)O)NC(=O)[C@H](C)NC(=O)[C@H](CCC(N)=O)NC(=O)[C@H](CCC(=O)O)NC(=O)[C@H](CCCNC(=N)N)NC(=O)[C@H](C)NC(=O)[C@H](C)NC(=O)[C@H](CCCNC(=N)N)NC(=O)[C@H](C)NC(=O)[C@H](CCCNC(=N)N)NC(=O)[C@H](C)NC(=O)[C@H](CCC(N)=O)NC(=O)CNC(=O)[C@H](CC(C)C)NC(=O)[C@H](CC(C)C)NC(=O)[C@@H](NC(=O)[C@H](CCC(N)=O)NC(=O)[C@H](CC(C)C)NC(=O)[C@H](CC(C)C)NC(=O)CNC(=O)[C@@H](NC(=O)[C@@H]1CCCN1C(=O)[C@@H](NC(=O)[C@H](CC(=O)O)NC(=O)[C@H](CC(C)C)NC(=O)[C@H](CO)NC(=O)[C@H](CC(C)C)NC(=O)[C@@H](NC(=O)[C@@H](NC)[C@@H](C)CC)C(C)C)C(C)C)[C@@H](C)CC)[C@@H](C)CC)[C@@H](C)CC)C(=O)N[C@@H](C)C(=O)N[C@@H](CCC(=O)O)C(=O)N[C@H](C(N)=O)C(C)C [compound 123] (H-[NMeI]VLSLDVPIGLLQILLGQARARAAREQAK([AEEA-AEEA-γGlu-γGlu-C20 diacid])[Aib]NAEI[Nle]AEV-NH2) | – | – | 0.00501 | 794 | –
4 | CCCC[C@H](NC(=O)[C@@H](NC(=O)[C@H](CCC(=O)O)NC(=O)[C@H](C)NC(=O)[C@H](CC(N)=O)NC(=O)C(C)(C)NC(=O)[C@H](CCCCNC(=O)COCCOCCNC(=O)COCCOCCNC(=O)CC[C@H](NC(=O)CC[C@H](NC(=O)CCCCCCCCCCCCCCCCCCC(=O)O)C(=O)O)C(=O)O)NC(=O)[C@H](C)NC(=O)[C@H](CCC(N)=O)NC(=O)[C@H](CCC(=O)O)NC(=O)[C@H](CCCNC(=N)N)NC(=O)[C@H](C)NC(=O)[C@H](C)NC(=O)[C@H](CCCNC(=N)N)NC(=O)[C@H](C)NC(=O)[C@H](CCCNC(=N)N)NC(=O)[C@H](C)NC(=O)[C@H](CCC(N)=O)NC(=O)[C@H](CCC(=O)O)NC(=O)[C@H](CC(C)C)NC(=O)[C@H](CC(C)C)NC(=O)[C@@H](NC(=O)[C@H](CCC(N)=O)NC(=O)[C@H](CC(C)C)NC(=O)[C@H](CC(C)C)NC(=O)CNC(=O)[C@@H](NC(=O)[C@@H]1CCCN1C(=O)[C@@H](NC(=O)[C@H](CC(=O)O)NC(=O)[C@H](CC(C)C)NC(=O)[C@H](CO)NC(=O)[C@H](CC(C)C)NC(=O)[C@@H](NC(=O)[C@@H](NC)[C@@H](C)CC)C(C)C)C(C)C)[C@@H](C)CC)[C@@H](C)CC)[C@@H](C)CC)C(=O)N[C@@H](C)C(=O)N[C@@H](CCC(=O)O)C(=O)N[C@H](C(N)=O)C(C)C [compound 124] (H-[NMeI]VLSLDVPIGLLQILLEQARARAAREQAK([AEEA-AEEA-γGlu-γGlu-C20 diacid])[Aib]NAEI[Nle]AEV-NH2) | – | – | 0.00631 | 251 | 40378
5 | CCCC[C@H](NC(=O)[C@@H](NC(=O)[C@H](CCC(=O)O)NC(=O)[C@H](C)NC(=O)[C@H](CC(N)=O)NC(=O)C(C)(C)NC(=O)[C@H](CCCCNC(=O)COCCOCCNC(=O)COCCOCCNC(=O)CC[C@H](NC(=O)CC[C@H](NC(=O)CCCCCCCCCCCCCCCCCCC(=O)O)C(=O)O)C(=O)O)NC(=O)[C@H](C)NC(=O)[C@H](CCC(N)=O)NC(=O)[C@H](CCC(=O)O)NC(=O)[C@H](CCCNC(=N)N)NC(=O)[C@H](C)NC(=O)[C@H](C)NC(=O)[C@H](CCCNC(=N)N)NC(=O)[C@H](C)NC(=O)[C@H](CCCNC(=N)N)NC(=O)[C@H](C)NC(=O)[C@H](CCC(N)=O)NC(=O)[C@H](Cc1c[nH]cn1)NC(=O)[C@H](CC(C)C)NC(=O)[C@H](CC(C)C)NC(=O)[C@@H](NC(=O)[C@H](CCC(N)=O)NC(=O)[C@H](CC(C)C)NC(=O)[C@H](CC(C)C)NC(=O)CNC(=O)[C@@H](NC(=O)[C@@H]1CCCN1C(=O)[C@@H](NC(=O)[C@H](CC(=O)O)NC(=O)[C@H](CC(C)C)NC(=O)[C@H](CO)NC(=O)[C@H](CC(C)C)NC(=O)[C@@H](NC(=O)[C@@H](NC)[C@@H](C)CC)C(C)C)C(C)C)[C@@H](C)CC)[C@@H](C)CC)[C@@H](C)CC)C(=O)N[C@@H](C)C(=O)N[C@@H](CCC(=O)O)C(=O)N[C@H](C(N)=O)C(C)C [compound 126] (H-[NMeI]VLSLDVPIGLLQILLHQARARAAREQAK([AEEA-AEEA-γGlu-γGlu-C20 diacid])[Aib]NAEI[Nle]AEV-NH2) | – | – | 0.01 | 794 | –
